Structures are written as SMILES. Where two headings read alike, the source gives them in different places. Where a SMILES comes first, the peptide text is derived from it. [ ]: non-standard residue; d: D form. The star is where a group is joined. DOTA = O=C(O)CN1CCN(CC(=O)O)CCN(CC(=O)*)CCN(CC(=O)O)CC1; 1Nal = N[C@@H](Cc1cccc2ccccc12)C(=O)O; NMeNle = CCCC[C@H](NC)C(=O)O

Here are results for nine compounds from publication PMC7583830 (Molecules, 2020).

One data set addresses T1, human CCK2R (Homo sapiens, UniProt P32239).
T1 construct: expressed in transfected cells; host or cells: A431 human epidermoid carcinoma cells, stably transfected (plasmid pCR3.1); provided by Dr. Luigi Aloj
T1 sequence (P32239 1-447): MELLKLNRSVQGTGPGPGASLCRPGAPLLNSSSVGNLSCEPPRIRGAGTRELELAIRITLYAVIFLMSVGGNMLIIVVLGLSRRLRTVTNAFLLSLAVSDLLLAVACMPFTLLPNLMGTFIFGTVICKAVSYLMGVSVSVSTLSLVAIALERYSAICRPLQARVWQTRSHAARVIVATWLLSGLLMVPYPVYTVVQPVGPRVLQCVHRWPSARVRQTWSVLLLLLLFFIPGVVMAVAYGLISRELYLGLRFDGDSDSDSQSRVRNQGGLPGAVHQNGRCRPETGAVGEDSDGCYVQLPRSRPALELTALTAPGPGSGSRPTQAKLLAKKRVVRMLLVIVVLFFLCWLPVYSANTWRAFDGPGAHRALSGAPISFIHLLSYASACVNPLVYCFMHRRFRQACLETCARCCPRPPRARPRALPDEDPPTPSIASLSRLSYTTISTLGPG
Put plainly: Competition assay against [125I][3-iodo-Tyr12,Leu15]gastrin-I on A431-CCK2R cells. In kind it is binding. Conditions: non-labeled peptide, displacement of [125I][3-iodo-Tyr12,Leu15]gastrin-I, 1 h RT. On the procedure: [^125I][3-iodo-Tyr^12,Leu^15]gastrin-I at high molar activity was obtained by HPLC purification and stored in aliquots at −25 °C. Binding assays were carried out using 96-well filter plates (MultiScreenHTS-FB, Merck Group, Darmstadt, Germany) pre-treated with 10 mM TRIS/139 mM NaCl pH 7.4 (2 × 250 µL). For the assay, 200,000–400,000 A431-CCK2R cells per well were prepared in 20 mM HEPES buffer pH 7.4 containing 10 mM MgCl2, 14 µM bacitracin and 0.5% BSA. The cells (n = 3) were incubated with increasing concentrations of the peptide conjugates (0.0003–30,000 nM) and [^125I][3-iodo-Tyr^12,Leu^15]gastrin-I (50,000 cpm) for 1 h at RT. Incubation was interrupted by filtration of the medium and rapid rinsing with ice-cold 10 mM TRIS/139 mM NaCl pH 7.4 (2 × 200 µL) and the filters were measured in the gamma-counter. Half maximal inhibitory concentration (IC50) values were calculated following nonlinear regression with Origin software (Microcal Origin 6.1, Northampton, MA, USA).
Background: Displacement assays read how much labelled ligand stays bound in the presence of the test substance.

Data set [1] is described as follows: Metabolic stability in vivo and radiometabolites (radio-HPLC of blood, urine, liver, kidney). The arrangement: species or system BALB/c mice. On the procedure:
Metabolic biodistribution studies were performed in accordance with the ethical standards of the institution and approved by the Austrian Ministry of Science (BMWFW-66.011/0072-V/3b/2019). These studies were carried out in 5- to 7-week-old female BALB/c mice (n = 3) injected with [^177Lu]Lu-1 via a lateral tail vein. To allow monitoring of the metabolites by radio-HPLC, mice were injected with 30 MBq corresponding to 0.8 nmol total peptide. The mice were euthanized by cervical dislocation after different time points of 10 min, 30 min and 1 h p.i. and the urine and a venous blood sample were collected at the time of sacrifice. Liver and kidneys were dissected and homogenized in 20 mM HEPES buffer pH 7.3 at a ratio of 1:1 (v/v) with an Ultra-Turrax T8 homogenizer (IKA-Werke, Staufen, Germany) for 1 min at RT. Before radio-HPLC analysis, the samples (except urine) were treated with ACN at a ratio of 1:1 (v/v) to precipitate proteins, centrifuged at 2000× g for 2 min and diluted with water at a ratio of 1:1 (v/v). For HPLC analysis of the samples, the analytical HPLC system described above with a flow rate of 1 mL/min was used together with the following optimized water/ACN/0.1% TFA gradient to allow a better separation of [^177Lu]Lu-1 and the different radiometabolites: 0–7 min 1–7% ACN, 7–8 min 7–10% ACN, 8–18 min 10–18% ACN, 18–20 min 18–32% ACN, 20–27 min 32% ACN, 27–37 min […], 37–40 min 80% ACN, 40–40.1 min 80–1% ACN, 40.1–45 min 1% ACN. Urine was measured with the low-sensitivity loop of the radiodetector. The remaining samples were analyzed with the high-sensitivity loop due to the lower radioactivity present in blood, liver and kidney homogenate. To quantify the percentage of intact [^177Lu]Lu-1 and [^177Lu]Lu-M1 showing some overlap in the radiochromatogram when using the high-sensitivity loop of the radiodetector, the two radiopeptides were co-injected at different known ratios to enable a more accurate separation and integration of the two peaks (see supporting Figure S4). Mice from the metabolic biodistribution studies were subjected to a further dissection of all remaining tissues (blood, lung, heart, femur, spleen, muscle, intestine, pancreas and stomach). All organs, also including liver and kidneys, were weighed, and their radioactivity was measured in the gamma counter together with a standard and the residual body. To quantify the uptake of radioactivity in liver and kidneys, a part of liver and kidney homogenate was measured in the gamma counter to extrapolate the radioactivity for the whole organ.

Data set [2] in a line: Stability in fresh human serum (radio-HPLC). The data set is classed as in vitro ADME. Conditions: 24 h incubation, 37 °C. The protocol:
In vitro stability studies for the characterization of the metabolic stability of the radiolabeled peptide analogs in human serum were carried out with [^177Lu]Lu-1, [^177Lu]Lu-M1, [^177Lu]Lu-M2, [^177Lu]Lu-M3 and [^177Lu]Lu-M4 (n = 2). Additional stability studies in rat liver and kidney homogenates were performed for [^177Lu]Lu-1 (n = 2). Tissue homogenates were prepared from dissected organs by homogenization for 1 min at RT (IKA-Werke, Staufen, Germany) in 20 mM HEPES buffer pH 7.3 (30% v/v). The radioligands were incubated in the different media at a concentration of 500 pmol/mL (corresponding to an activity of 6–11 MBq). After incubation at 37 °C at different time points for up to 24 h, a 100 µl sample was taken in duplicates and analyzed by HPLC. Samples obtained from human serum and rat homogenates were treated with ACN at a ratio of 1:1.5 (v/v) to precipitate proteins, centrifuged (14,000 rpm, 2 min, centrifuge 5424, Eppendorf AG, Germany) and diluted with water at a ratio of 1:1 (v/v). A 100 µl aliquot of this solution was injected into the radio HPLC system. The degradation of the radioligand was evaluated based on the radiochemical purity after radiolabeling and the percentage of intact radiopeptide observed during incubation in the different media.

Data set [3] is described as follows: Protein binding in human serum by size exclusion chromatography. The data set is classed as in vitro ADME. Conditions: 24 h incubation. On the procedure:
For protein binding assessment, the radiolabeled DOTA-peptides were incubated in fresh human serum at 37 °C (500 pmol/mL, n = 2). After 1, 4 and 24 h of incubation, two samples were taken for each time point and analyzed by Sephadex G-50 size-exclusion chromatography (GE Healthcare Illustra, Little Chalfont, UK). The percentage of protein binding was determined by measuring the column and the eluate with the gamma-counter.

Data set [4] can be described thus: Distribution coefficient (logD) in octanol/PBS. The data set is classed as physicochemical. On the procedure:
The mixture was vigorously vortexed at room temperature over a period of 15 min using a small shaker (MS3 Basic, IKA, Staufen, Germany) with speed of 1500 rpm.

A word on the IC50: it is the concentration that inhibits the measured activity by half. Lower therefore signals greater potency in that assay. `CCCC[C@@H](C(=O)N[C@@H](CC(=O)O)C(=O)N[C@@H](Cc1cccc2ccccc12)C(=O)O)N(C)C(=O)[C@H](Cc1c[nH]c2ccccc12)NC(=O)CNC(=O)[C@H](Cc1ccc(O)cc1)NC(=O)[C@@H]1CCCN1C(=O)[C@@H](CCC(=O)O)NC(=O)CN1CCN(CC(=O)O)CCN(CC(=O)O)CCN(CC(=O)O)CC1` [M1, DOTA-DGlu-Pro-Tyr-Gly-Trp-(N-Me)Nle-Asp-1Nal-COOH] ({DOTA}-[dE]PYGW[NMeNle]D[1Nal]-OH): the IC50 on human CCK2R is > 1000 nM.

With `CCCC[C@@H](C(=O)N[C@@H](CC(=O)O)C(=O)O)N(C)C(=O)[C@H](Cc1c[nH]c2ccccc12)NC(=O)CNC(=O)[C@H](Cc1ccc(O)cc1)NC(=O)[C@@H]1CCCN1C(=O)[C@@H](CCC(=O)O)NC(=O)CN1CCN(CC(=O)O)CCN(CC(=O)O)CCN(CC(=O)O)CC1` [M2, DOTA-DGlu-Pro-Tyr-Gly-Trp-(N-Me)Nle-Asp] ({DOTA}-[dE]PYGW[NMeNle]D-OH; C-terminus assumed), the IC50 on human CCK2R is > 1000 nM.

As to `CCCC[C@@H](C(=O)O)N(C)C(=O)[C@H](Cc1c[nH]c2ccccc12)NC(=O)CNC(=O)[C@H](Cc1ccc(O)cc1)NC(=O)[C@@H]1CCCN1C(=O)[C@@H](CCC(=O)O)NC(=O)CN1CCN(CC(=O)O)CCN(CC(=O)O)CCN(CC(=O)O)CC1` [M3, DOTA-DGlu-Pro-Tyr-Gly-Trp-(N-Me)Nle] ({DOTA}-[dE]PYGW[NMeNle]-OH; C-terminus assumed), the half-maximal inhibitory concentration (IC50) on human CCK2R was > 1000 nM.

On to `O=C(O)CC[C@@H](NC(=O)CN1CCN(CC(=O)O)CCN(CC(=O)O)CCN(CC(=O)O)CC1)C(=O)N1CCC[C@H]1C(=O)N[C@@H](Cc1ccc(O)cc1)C(=O)NCC(=O)N[C@@H](Cc1c[nH]c2ccccc12)C(=O)O` [M4, DOTA-DGlu-Pro-Tyr-Gly-Trp] ({DOTA}-[dE]PYGW-OH; C-terminus assumed), for which the IC50 on human CCK2R is > 1000 nM.

Usually fraction unbound stands for free concentration divided by total concentration. Higher therefore signals weak binding. Usually logD stands for lipophilicity at a set pH, counting ionised and neutral species. For the compound `CCCC[C@@H](C(=O)N[C@@H](CC(=O)O)C(=O)N[C@@H](Cc1cccc2ccccc12)C(=O)O)N(C)C(=O)[C@H](Cc1c[nH]c2ccccc12)NC(=O)CNC(=O)[C@H](Cc1ccc(O)cc1)NC(=O)[C@@H]1CCCN1C(=O)[C@@H](CCC(=O)O)NC(=O)CN1CCN(CC(=O)O)CCN(CC(=O)O)CCN(CC(=O)O)CC1` [[^177Lu]Lu-M1, metal not drawn] ({DOTA}-[dE]PYGW[NMeNle]D[1Nal]-OH), the “percentage of intact radiopeptide / radiometabolite” value was found to be 9.9% in data set [1] (blood, 30 min p.i., mice injected i.v. with [177Lu]Lu-1); 5.8% in data set [1] (blood, 60 min p.i., mice injected i.v. with [177Lu]Lu-1); 2.5% in data set [1] (kidney, 30 min p.i.); 4.8% in data set [1] (liver, 30 min p.i.); 4.6% in data set [1] (liver, 60 min p.i.); 1.4% in data set [1] (urine, 30 min p.i.). Further, in data set [1] (blood, different time points up to 1 h p.i.), the amount of radiometabolite was < 10%. For the same compound, the intact radiopeptide is recorded as 89.1 ± 1.3% in data set [2] and 89% in data set [2] (listed as radiolabeled M1). In data set [3], this compound had a fraction unbound of 0.546. Further, the logD in data set [4] (octanol/PBS pH 7.4, read-out: logD) is -4.07 ± 0.35.

In the case of `O=C(O)CC[C@@H](NC(=O)CN1CCN(CC(=O)O)CCN(CC(=O)O)CCN(CC(=O)O)CC1)C(=O)N1CCC[C@H]1C(=O)N[C@@H](Cc1ccc(O)cc1)C(=O)NCC(=O)N[C@@H](Cc1c[nH]c2ccccc12)C(=O)O` [[^177Lu]Lu-M4, metal not drawn] ({DOTA}-[dE]PYGW-OH; C-terminus assumed), the amount of radiometabolite in data set [1] (mouse, in vivo) is recorded as < 3%. Besides, the logD in data set [4] (pH 7.4) was -4.19 ± 0.3.

As to `O=C(O)CC[C@@H](NC(=O)CN1CCN(CC(=O)O)CCN(CC(=O)O)CCN(CC(=O)O)CC1)C(=O)N1CCC[C@H]1C(=O)N[C@@H](Cc1ccc(O)cc1)C(=O)NCC(=O)O` [[^177Lu]Lu-M5, metal not drawn] ({DOTA}-[dE]PYG-OH; C-terminus assumed), the amount of radiometabolite in data set [1] (mouse, in vivo) is recorded as < 10%.

For `O=C(O)CC[C@@H](NC(=O)CN1CCN(CC(=O)O)CCN(CC(=O)O)CCN(CC(=O)O)CC1)C(=O)N1CCC[C@H]1C(=O)N[C@@H](Cc1ccc(O)cc1)C(=O)O` [[^177Lu]Lu-M6, metal not drawn] ({DOTA}-[dE]-Pro-Tyr-OH; C-terminus assumed), the amount of radiometabolite in data set [1] (mouse, in vivo) was ~ 20%.

Turning to `CCCC[C@@H](C(=O)N[C@@H](CC(=O)O)C(=O)N[C@@H](Cc1cccc2ccccc12)C(N)=O)N(C)C(=O)[C@H](Cc1c[nH]c2ccccc12)NC(=O)CNC(=O)[C@H](Cc1ccc(O)cc1)NC(=O)[C@@H]1CCCN1C(=O)[C@@H](CCC(=O)O)NC(=O)CN1CCN(CC(=O)O)CCN(CC(=O)O)CCN(CC(=O)O)CC1` [compound 1, DOTA-DGlu-Pro-Tyr-Gly-Trp-(N-Me)Nle-Asp-1Nal-NH2] ({DOTA}-[dE]PYGW[NMeNle]D[1Nal]-NH2), the IC50 on human CCK2R was found to be 0.69 ± 0.09 nM.
